According to patent publication US11566007B2, “Ras inhibitors” (Revolution Medicines, Inc., priority 2019, dated 2023):

Columns and labels:
NCI-H358 (K-Ras G12C) = experiment: CellTiter-Glo cell viability assay, NCI-H358; type: cell-based, human; conditions: Homo sapiens, NCI-H358, 120 h, NCI-H358, 5-day treatment; class symbols; read-out: Additional H358 Cell Viability assay data (K-Ras G12C, IC50)
Procedure, shortened: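 Cells seeded, compound added directly, 5-day exposure. Plates to RT ~30 min, CellTiter-Glo luminescence read. Normalized to DMSO avg (x100); 4-parameter logistic fit.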

KRAS G12S = KRAS G12S (Homo sapiens (Human), UniProt P01116+P62937, G12S); experiment: Ras-Raf (BRAF RBD) disruption / FRET / MOA assay, KRAS G12S; type: biochemical; conditions: Ras-Raf disruption/FRET/MOA assay; class symbols; read-out: KRAS G12S FRET data IC50
Chain of KRAS G12S (P01116-2 other isoform, or with tags, fused parts or gaps G12S): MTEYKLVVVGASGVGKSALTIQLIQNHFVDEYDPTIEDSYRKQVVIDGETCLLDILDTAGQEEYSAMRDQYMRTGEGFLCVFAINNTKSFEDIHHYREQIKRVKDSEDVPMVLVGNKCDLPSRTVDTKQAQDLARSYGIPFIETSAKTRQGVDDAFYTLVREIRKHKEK
Chain of KRAS G12S (P62937 whole entry): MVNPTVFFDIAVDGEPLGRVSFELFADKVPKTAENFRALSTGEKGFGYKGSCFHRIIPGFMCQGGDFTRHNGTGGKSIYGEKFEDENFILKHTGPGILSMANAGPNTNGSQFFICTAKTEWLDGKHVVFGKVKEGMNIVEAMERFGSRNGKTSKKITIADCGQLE
Procedure, shortened: (§1)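 A 10-point, 3-fold dilution series topping at 30 μM final was incubated 3 h at 25° C with the Ras/cyclophilin A/BRAF RBD mixture.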

KRAS G12V = KRAS G12V (Homo sapiens (Human), UniProt P01116+P62937, G12V); experiment: Ras-Raf (BRAF RBD) disruption / FRET / MOA assay, KRAS G12V; type: biochemical; conditions: read-out: IC50* KRAS G12V FRET data
Chain of KRAS G12V (P01116-2 other isoform, or with tags, fused parts or gaps G12V): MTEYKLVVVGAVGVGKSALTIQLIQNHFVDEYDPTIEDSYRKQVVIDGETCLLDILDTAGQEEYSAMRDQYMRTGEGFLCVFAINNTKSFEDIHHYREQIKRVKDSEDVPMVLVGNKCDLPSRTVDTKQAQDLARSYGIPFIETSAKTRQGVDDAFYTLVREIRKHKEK
Chain of KRAS G12V (P62937 whole entry): as the sequence (P62937 whole entry) above
Procedure, shortened: as §1

KRAS G13D = KRAS G13D (Homo sapiens (Human), UniProt P01116+P62937, G13D); experiment: Ras-Raf (BRAF RBD) disruption / FRET / MOA assay, KRAS G13D; type: biochemical; conditions: read-out: IC50* KRAS G13D FRET data
Chain of KRAS G13D (P01116-2 other isoform, or with tags, fused parts or gaps G13D): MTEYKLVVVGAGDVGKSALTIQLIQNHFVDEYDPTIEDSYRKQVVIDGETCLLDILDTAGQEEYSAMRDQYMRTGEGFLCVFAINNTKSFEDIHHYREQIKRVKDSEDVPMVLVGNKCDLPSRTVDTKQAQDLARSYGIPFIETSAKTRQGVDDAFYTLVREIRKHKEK
Chain of KRAS G13D (P62937 whole entry): as the sequence (P62937 whole entry) above
Procedure, shortened: as §1

KRAS Q61H = KRAS Q61H (Homo sapiens (Human), UniProt P01116+P62937, Q61H); experiment: Ras-Raf (BRAF RBD) disruption / FRET / MOA assay, KRAS Q61H; type: biochemical; conditions: Ras-Raf disruption/FRET/MOA assay; class symbols; read-out: KRAS Q61H FRET data IC50
Chain of KRAS Q61H (P01116-2 other isoform, or with tags, fused parts or gaps Q61H): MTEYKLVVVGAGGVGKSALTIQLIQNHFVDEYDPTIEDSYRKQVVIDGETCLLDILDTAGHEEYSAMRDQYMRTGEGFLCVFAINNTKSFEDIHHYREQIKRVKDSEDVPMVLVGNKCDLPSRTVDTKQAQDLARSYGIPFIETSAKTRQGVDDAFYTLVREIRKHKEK
Chain of KRAS Q61H (P62937 whole entry): as the sequence (P62937 whole entry) above
Procedure, shortened: (§2)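 Compounds (30 μM top final, 10-point 3-fold dilutions) incubated 3 h at 25° C with nucleotide-loaded Ras, cyclophilin A and BRAF RBD. Detection with 10 nM anti-His Eu-W1024 and 50 nM anti-GST allophycocyanin over another 1.5 h. Lowered TR-FRET ratio relative to DMSO wells gives IC50.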

NRAS Q61R = NRAS Q61R (Homo sapiens (Human), UniProt P01111+P62937, Q61R); experiment: Ras-Raf (BRAF RBD) disruption / FRET / MOA assay, NRAS Q61R; type: biochemical; conditions: NRAS Q61R; Ras-Raf disruption/FRET/MOA assay; read-out: IC50* NRAS Q61R FRET data
Chain of NRAS Q61R (P01111 whole entry Q61R): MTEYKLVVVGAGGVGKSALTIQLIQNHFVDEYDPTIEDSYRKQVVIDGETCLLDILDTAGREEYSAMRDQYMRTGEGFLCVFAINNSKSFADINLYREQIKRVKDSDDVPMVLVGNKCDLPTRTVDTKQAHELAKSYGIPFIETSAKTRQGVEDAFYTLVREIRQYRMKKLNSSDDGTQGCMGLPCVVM
Chain of NRAS Q61R (P62937 whole entry): as the sequence (P62937 whole entry) above
Procedure, shortened: as §2

NRAS Q61K = NRAS Q61K (Homo sapiens (Human), UniProt P01111+P62937, Q61K); experiment: Ras-Raf (BRAF RBD) disruption / FRET / MOA assay, NRAS Q61K; type: biochemical; conditions: NRAS Q61K; Ras-Raf disruption/FRET/MOA assay; read-out: IC50* NRAS Q61K FRET data
Chain of NRAS Q61K (P01111 whole entry Q61K): as the sequence (P01111 whole entry Q61R) above, with R61K counted along it
Chain of NRAS Q61K (P62937 whole entry): as the sequence (P62937 whole entry) above
Procedure, shortened: as §2

SMILES	IC50 (NCI-H358 (K-Ras G12C))	IC50 (KRAS G12S)	IC50 (KRAS G12V)	IC50 (KRAS G13D)	IC50 (KRAS Q61H)	IC50 (NRAS Q61R)	IC50 (NRAS Q61K)
CCn1c(-c2cccnc2[C@H](C)OC)c2c3cc(ccc31)C1=CCCN(C1)C[C@H](NC(=O)[C@@H](COC1CN(C(=O)C#CC(C)(C)N(C)C)C1)C(C)C)C(=O)N1CCC[C@H](N1)C(=O)OCC(C)(C)C2 (atropisomer, axis not shown) [Example A663, (2R)-2-(((1-(4-(dimethylamino)-4-methylpent-2-ynoyl)405yridine405-3-yl)oxy)methyl)-N-((6^3S,4S)-1^1-ethyl-1^2-(2-((S)-1-methoxyethyl)405yridine-3-yl)-10,10-dimethyl-5,7-dioxo-2^1,2^2,2^3,2^6,6^1,6^2,6^3,6^4,6^5,6^6-decahydro-1^1H-8-oxa-1(5,3)-indola-6(1,3)-pyridazina-2(5,1)-pyridinacycloundecaphane-4-yl)-3-methylbutanamide]	< 10 nM	> 10000 nM	> 10000 nM	> 10000 nM	> 10000 nM	> 10000 nM	> 10000 nM
CCn1c(-c2cccnc2[C@H](C)OC)c2c3cc(ccc31)-c1csc(n1)C[C@H](NC(=O)[C@H](C(C)C)N(C)C(=O)N1CCN(C(=O)/C=C/CN3CCOCC3)C3(CC3)C1)C(=O)N1CCC[C@H](N1)C(=O)OCC(C)(C)C2 (atropisomer, axis not shown) [Example A665]	< 10 nM	10 to 100 nM	10 to 100 nM	100 to 1000 nM	10 to 100 nM	10 to 100 nM	10 to 100 nM
CCn1c(-c2cccnc2[C@H](C)OC)c2c3cc(ccc31)-c1csc(n1)C[C@H](NC(=O)[C@H](C(C)C)N(C)C(=O)N1CCC3(CC1)CN(C(=O)/C=C/CN1CCOCC1)C3)C(=O)N1CCC[C@H](N1)C(=O)OCC(C)(C)C2 (atropisomer, axis not shown) [Example A669]	10 to 100 nM	100 to 1000 nM	100 to 1000 nM	100 to 1000 nM	10 to 100 nM	10 to 100 nM	10 to 100 nM
CCn1c(-c2cccnc2[C@H](C)OC)c2c3cc(ccc31)-c1csc(n1)C[C@H](NC(=O)[C@H](C(C)C)N(C)C(=O)N1CCC3(CC1)CN(C(=O)/C=C/CN1CCCCC1)C3)C(=O)N1CCC[C@H](N1)C(=O)OCC(C)(C)C2 (atropisomer, axis not shown) [Example A670]	10 to 100 nM	100 to 1000 nM	100 to 1000 nM	100 to 1000 nM	100 to 1000 nM	100 to 1000 nM	100 to 1000 nM
C/C=C/C(=O)N1CC2(CCN(C(=O)N(C)[C@H](C(=O)N[C@H]3Cc4nc(cs4)-c4ccc5c(c4)c(c(-c4cccnc4[C@H](C)OC)n5CC)CC(C)(C)COC(=O)[C@@H]4CCCN(N4)C3=O)C(C)C)CC2)C1 (atropisomer, axis not shown) [Example A671]	10 to 100 nM	100 to 1000 nM	100 to 1000 nM	100 to 1000 nM	10 to 100 nM	100 to 1000 nM	10 to 100 nM
CCn1c(-c2cccnc2[C@H](C)OC)c2c3cc(ccc31)-c1nc(co1)C[C@H](NC(=O)[C@@H](COC1CN(C(=O)C#CC(C)(C)N(C)C)C1)C(C)C)C(=O)N1CCC[C@H](N1)C(=O)OCC(C)(C)C2 (atropisomer, axis not shown) [Example A675, (2R)-2-(((1-(4-(dimethylamino)-4-methylpent-2-ynoyl)azetidin-3-yl)oxy)methyl)-N-((6^3S,4S,Z)-1^1-ethyl-1^2-(2-((S)-1-methoxyethyl)pyridin-3-yl)-10,10-dimethyl-5,7-dioxo-6^1,6^2,6^3,6^4,6^5,6^6-hexahydro-1^1H-8-oxa-2(2,4)-oxazola-1(5,3)-indola-6(1,3)-pyridazinacycloundecaphane-4-yl)-3-methylbutanamide]	< 10 nM	> 10000 nM	> 10000 nM	> 10000 nM	> 10000 nM	> 10000 nM	> 10000 nM
C=CC(=O)N1CCN(C(=O)N(C)[C@H](C(=O)N[C@H]2Cc3nc(cs3)-c3ccc4c(c3)c(c(-c3cccnc3[C@H](C)OC)n4CC(F)(F)F)CC(C)(C)COC(=O)[C@@H]3CCCN(N3)C2=O)C(C)C)CC12CC2 (atropisomer, axis not shown) [Example A679]	10 to 100 nM	10 to 100 nM	10 to 100 nM	100 to 1000 nM	10 to 100 nM	10 to 100 nM	10 to 100 nM
C=C(OC)C(=O)N1CC2(CCN(C(=O)N(C)[C@H](C(=O)N[C@H]3Cc4nc(cs4)-c4ccc5c(c4)c(c(-c4cccnc4[C@H](C)OC)n5CC)CC(C)(C)COC(=O)[C@@H]4CCCN(N4)C3=O)C(C)C)CC2)C1 (atropisomer, axis not shown) [Example A681]	10 to 100 nM	100 to 1000 nM	100 to 1000 nM	100 to 1000 nM	10 to 100 nM	100 to 1000 nM	10 to 100 nM
C=C(F)C(=O)N1CC2(CCN(C(=O)N(C)[C@H](C(=O)N[C@H]3Cc4nc(cs4)-c4ccc5c(c4)c(c(-c4cccnc4[C@H](C)OC)n5CC)CC(C)(C)COC(=O)[C@@H]4CCCN(N4)C3=O)C(C)C)CC2)C1 (atropisomer, axis not shown) [Example A682]	10 to 100 nM	100 to 1000 nM	100 to 1000 nM	100 to 1000 nM	10 to 100 nM	100 to 1000 nM	10 to 100 nM
C=CC(=O)N1CC2(CCN2C(=O)N(C)[C@H](C(=O)N[C@H]2Cc3cccc(c3)-c3ccc4c(c3)c(c(-c3cccnc3[C@H](C)OC)n4CC)CC(C)(C)COC(=O)[C@@H]3CCCN(N3)C2=O)C(C)C)C1 (atropisomer, axis not shown) [Example A684]	< 10 nM	100 to 1000 nM	100 to 1000 nM	100 to 1000 nM	10 to 100 nM	100 to 1000 nM	100 to 1000 nM
C=CC(=O)N1C[C@H]2CN(C(=O)N(C)[C@H](C(=O)N[C@H]3Cc4nc(cs4)-c4ccc5c(c4)c(c(-c4cccnc4[C@H](C)OC)n5CC)CC(C)(C)COC(=O)[C@@H]4CCCN(N4)C3=O)C(C)C)[C@H]2C1 (atropisomer, axis not shown) [Example A686]	< 10 nM	100 to 1000 nM	100 to 1000 nM	100 to 1000 nM	10 to 100 nM	100 to 1000 nM	10 to 100 nM
C=CC(=O)N1CC[C@H]2[C@@H](C1)CN2C(=O)N(C)[C@H](C(=O)N[C@H]1Cc2nc(cs2)-c2ccc3c(c2)c(c(-c2cccnc2[C@H](C)OC)n3CC)CC(C)(C)COC(=O)[C@@H]2CCCN(N2)C1=O)C(C)C (atropisomer, axis not shown) [Example A687]	10 to 100 nM	100 to 1000 nM	100 to 1000 nM	100 to 1000 nM	10 to 100 nM	100 to 1000 nM	10 to 100 nM
CCn1c(-c2cccnc2[C@H](C)OC)c2c3cc(ccc31)-c1csc(n1)C[C@H](NC(=O)C[C@@H]1COC3(CN(C(=O)C#CC(C)(C)N(C)C)C3)O1)C(=O)N1CCC[C@H](N1)C(=O)OCC(C)(C)C2 (atropisomer, axis not shown) [Example A691]	< 10 nM	1000 to 10000 nM	1000 to 10000 nM	1000 to 10000 nM	1000 to 10000 nM	1000 to 10000 nM	1000 to 10000 nM
